Laboratory results taken from ChEMBL document CHEMBL1138586 (Bioorg Med Chem Lett, 2009).

Legend:
[1] = Clearance in Beagle dog at 0.5 mg/kg, iv and 2.5 mg/kg, po; format: ADME, organism-based, Canis lupus familiaris; conditions: in vivo
[2] = Inhibition of trypsin
[3] = AUC in rat at 5 mg/kg, po; format: ADME, organism-based; design: dose 5 mg/kg, route oral; conditions: plasma
[4] = Oral bioavailability in cynomolgus monkey at 7.5 mg/kg; format: ADME, organism-based, Macaca fascicularis; conditions: in vivo
[5] = Volume of distribution in Beagle dog at 0.5 mg/kg, iv and 2.5 mg/kg, po; format: ADME, organism-based, Canis lupus familiaris; conditions: in vivo
[6] = Volume of distribution in cynomolgus monkey at 0.75 mg/kg, iv and 7.5 mg/kg, po; format: ADME, organism-based, Macaca fascicularis; conditions: in vivo
[7] = Oral bioavailability in rat at 5 mg/kg; format: ADME, organism-based; conditions: in vivo
[8] = Inhibition of kallikrein
[9] = Oral bioavailability in Beagle dog at 2.5 mg/kg; format: ADME, organism-based, Canis lupus familiaris; conditions: in vivo
[10] = Clearance in rat at 1 mg/kg, iv and 5 mg/kg, po; format: ADME, organism-based; conditions: in vivo
[11] = Half life in cynomolgus monkey at 0.75 mg/kg, iv and 7.5 mg/kg, po; format: ADME, organism-based, Macaca fascicularis; conditions: in vivo
[12] = biological target: Vitamin K-dependent protein C (Homo sapiens, UniProt P04070); assay: Inhibition of activated anticoagulant protein C
Chain of Vitamin K-dependent protein C (P04070 43-197 limits assumed): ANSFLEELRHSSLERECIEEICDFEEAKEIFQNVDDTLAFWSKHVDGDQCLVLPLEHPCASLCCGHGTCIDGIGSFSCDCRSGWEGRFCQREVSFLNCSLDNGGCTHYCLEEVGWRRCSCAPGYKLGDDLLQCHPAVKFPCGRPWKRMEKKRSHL
Chain of Vitamin K-dependent protein C (P04070 212-461 limits assumed): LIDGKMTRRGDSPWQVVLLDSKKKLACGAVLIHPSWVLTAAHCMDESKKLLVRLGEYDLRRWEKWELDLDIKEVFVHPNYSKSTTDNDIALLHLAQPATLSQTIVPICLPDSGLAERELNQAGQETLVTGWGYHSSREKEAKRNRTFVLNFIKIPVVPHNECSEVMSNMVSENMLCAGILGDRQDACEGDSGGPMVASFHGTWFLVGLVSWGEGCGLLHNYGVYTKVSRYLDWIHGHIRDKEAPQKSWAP

[13] = Half life in rat at 1 mg/kg, iv and 5 mg/kg, po; format: ADME, organism-based; conditions: in vivo
Prothrombin = Prothrombin (Homo sapiens, UniProt P00734); assay: Inhibition of thrombin
[14] = Half life in Beagle dog at 0.5 mg/kg, iv and 2.5 mg/kg, po; format: ADME, organism-based, Canis lupus familiaris; conditions: in vivo
[15] = AUC in Beagle dog at 2.5 mg/kg, po; format: ADME, organism-based, Canis lupus familiaris; design: dose 2.5 mg/kg, route oral; conditions: plasma
Plasminogen = Plasminogen (Homo sapiens, UniProt P00747); assay: Inhibition of plasmin
Chain of Plasminogen (P00747 97-580 limits assumed): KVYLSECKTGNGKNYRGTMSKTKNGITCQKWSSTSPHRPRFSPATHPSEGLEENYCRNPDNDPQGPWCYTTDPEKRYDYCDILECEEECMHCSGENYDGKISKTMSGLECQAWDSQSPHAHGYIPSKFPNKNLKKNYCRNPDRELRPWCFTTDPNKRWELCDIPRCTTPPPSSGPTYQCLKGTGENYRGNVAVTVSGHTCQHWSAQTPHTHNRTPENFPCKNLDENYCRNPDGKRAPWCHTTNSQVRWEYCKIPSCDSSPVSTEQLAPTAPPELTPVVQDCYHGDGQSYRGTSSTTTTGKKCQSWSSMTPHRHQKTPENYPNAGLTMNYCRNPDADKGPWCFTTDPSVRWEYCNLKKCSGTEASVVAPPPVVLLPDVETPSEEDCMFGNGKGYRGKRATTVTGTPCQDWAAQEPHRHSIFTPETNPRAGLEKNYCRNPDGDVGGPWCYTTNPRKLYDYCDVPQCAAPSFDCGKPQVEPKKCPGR
Chain of Plasminogen (P00747 581-810 limits assumed): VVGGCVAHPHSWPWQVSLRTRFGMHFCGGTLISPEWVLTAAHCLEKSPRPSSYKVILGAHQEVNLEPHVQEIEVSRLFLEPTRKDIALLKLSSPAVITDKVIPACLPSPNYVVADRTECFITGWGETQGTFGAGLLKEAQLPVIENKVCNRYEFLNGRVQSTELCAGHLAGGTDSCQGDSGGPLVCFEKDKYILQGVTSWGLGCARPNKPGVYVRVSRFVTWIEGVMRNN

[16] = biological target: Tissue-type plasminogen activator (Homo sapiens, UniProt P00750); assay: Inhibition of tissue plasminogen activator
Chain of Tissue-type plasminogen activator (P00750 whole entry): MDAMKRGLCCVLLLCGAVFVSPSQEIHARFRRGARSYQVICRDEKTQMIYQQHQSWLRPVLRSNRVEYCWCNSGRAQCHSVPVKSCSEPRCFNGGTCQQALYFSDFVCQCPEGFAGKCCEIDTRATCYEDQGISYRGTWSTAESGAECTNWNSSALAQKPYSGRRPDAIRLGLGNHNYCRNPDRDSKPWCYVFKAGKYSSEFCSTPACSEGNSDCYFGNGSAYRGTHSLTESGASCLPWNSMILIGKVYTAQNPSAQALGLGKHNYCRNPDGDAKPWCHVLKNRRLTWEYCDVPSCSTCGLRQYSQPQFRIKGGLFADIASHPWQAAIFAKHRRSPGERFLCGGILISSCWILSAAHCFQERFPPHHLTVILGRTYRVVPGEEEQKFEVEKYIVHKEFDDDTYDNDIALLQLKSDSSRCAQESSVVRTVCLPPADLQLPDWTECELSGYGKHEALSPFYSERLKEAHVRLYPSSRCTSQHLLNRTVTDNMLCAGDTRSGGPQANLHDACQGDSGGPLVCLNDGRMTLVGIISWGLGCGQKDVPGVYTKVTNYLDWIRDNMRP

[17] = Fraction unbound in human plasma at 10 uM after 30 mins; format: ADME, cell-free
[18] = AUC in cynomolgus monkey at 7.5 mg/kg, po; format: ADME, organism-based, Macaca fascicularis; design: dose 7.5 mg/kg, route oral; conditions: plasma
[19] = Clearance in cynomolgus monkey at 0.75 mg/kg, iv and 7.5 mg/kg, po; format: ADME, organism-based, Macaca fascicularis; conditions: in vivo
[20] = Volume of distribution in rat at 1 mg/kg, iv and 5 mg/kg, po; format: ADME, organism-based; conditions: in vivo
[21] = Oral bioavailability in Sprague-Dawley rat at 6 mg/kg; format: ADME, organism-based; conditions: in vivo
[22] = Volume of distribution in Beagle dog at 0.1 mg/kg, iv and 1 mg/kg, po; format: ADME, organism-based, Canis lupus familiaris; conditions: in vivo
[23] = biological target: T1, Voltage-gated inwardly rectifying potassium channel KCNH2 (Homo sapiens, UniProt Q12809)
T1 sequence (Q12809 whole entry): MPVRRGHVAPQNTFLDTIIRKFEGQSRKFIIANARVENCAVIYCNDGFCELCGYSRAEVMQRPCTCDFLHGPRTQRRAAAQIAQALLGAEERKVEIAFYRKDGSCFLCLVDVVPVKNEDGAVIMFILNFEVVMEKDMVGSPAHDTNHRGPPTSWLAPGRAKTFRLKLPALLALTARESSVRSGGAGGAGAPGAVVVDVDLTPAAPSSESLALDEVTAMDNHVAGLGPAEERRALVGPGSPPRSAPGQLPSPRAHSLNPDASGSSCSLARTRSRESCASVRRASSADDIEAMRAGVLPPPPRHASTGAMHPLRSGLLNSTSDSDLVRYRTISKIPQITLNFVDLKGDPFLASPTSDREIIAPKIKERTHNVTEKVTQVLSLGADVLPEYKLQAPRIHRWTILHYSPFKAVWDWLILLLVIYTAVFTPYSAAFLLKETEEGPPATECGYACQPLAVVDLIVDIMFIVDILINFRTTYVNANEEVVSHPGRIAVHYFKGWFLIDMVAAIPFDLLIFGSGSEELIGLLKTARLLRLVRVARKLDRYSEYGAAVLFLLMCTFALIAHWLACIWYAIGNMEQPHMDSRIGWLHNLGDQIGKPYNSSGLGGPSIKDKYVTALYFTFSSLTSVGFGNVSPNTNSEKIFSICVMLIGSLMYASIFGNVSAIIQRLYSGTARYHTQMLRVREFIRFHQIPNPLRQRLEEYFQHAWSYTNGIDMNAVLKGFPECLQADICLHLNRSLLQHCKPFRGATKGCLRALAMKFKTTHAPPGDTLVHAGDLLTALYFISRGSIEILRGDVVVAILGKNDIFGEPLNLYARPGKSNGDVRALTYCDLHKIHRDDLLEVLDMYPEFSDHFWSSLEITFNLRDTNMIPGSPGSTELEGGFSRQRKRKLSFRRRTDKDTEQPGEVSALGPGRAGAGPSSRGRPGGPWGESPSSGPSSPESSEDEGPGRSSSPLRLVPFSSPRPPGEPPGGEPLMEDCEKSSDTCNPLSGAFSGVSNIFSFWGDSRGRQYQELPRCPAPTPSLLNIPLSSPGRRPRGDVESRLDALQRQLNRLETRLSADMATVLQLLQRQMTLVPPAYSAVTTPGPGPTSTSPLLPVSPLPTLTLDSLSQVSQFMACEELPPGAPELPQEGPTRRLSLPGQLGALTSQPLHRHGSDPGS

[24] = Oral bioavailability in rat at 6 mg/kg; format: ADME, organism-based; conditions: in vivo
[25] = AUC in rat at 6 mg/kg, po; format: ADME, organism-based; design: dose 6 mg/kg, route oral; conditions: plasma
[26] = Volume of distribution in cynomolgus monkey at 0.1 mg/kg, iv and 1 mg/kg, po; format: ADME, organism-based, Macaca fascicularis; conditions: in vivo
[27] = Half life in Beagle dog at 0.1 mg/kg, iv and 1 mg/kg, po; format: ADME, organism-based, Canis lupus familiaris; conditions: in vivo
[28] = AUC in cynomolgus monkey at 1 mg/kg, po; format: ADME, organism-based, Macaca fascicularis; design: dose 1 mg/kg, route oral; conditions: plasma
[29] = Oral bioavailability in Beagle dog at 1 mg/kg; format: ADME, organism-based, Canis lupus familiaris; conditions: in vivo
[30] = AUC in Beagle dog at 1 mg/kg, po; format: ADME, organism-based, Canis lupus familiaris; design: dose 1 mg/kg, route oral; conditions: plasma
[31] = Clearance in Beagle dog at 0.1 mg/kg, iv and 1 mg/kg, po; format: ADME, organism-based, Canis lupus familiaris; conditions: in vivo
[32] = Oral bioavailability in cynomolgus monkey at 1 mg/kg; format: ADME, organism-based, Macaca fascicularis; conditions: in vivo
[33] = biological target: T1, Voltage-gated inwardly rectifying potassium channel KCNH2; assay: Inhibition of human ERG expressed in HEK293 cells by patch-clamp method; format: cell-based
[34] = Volume of distribution in rat at 0.2 mg/kg, iv and 6 mg/kg, po; format: ADME, organism-based; conditions: in vivo
[35] = Clearance in rat at 0.2 mg/kg, iv and 6 mg/kg, po; format: ADME, organism-based; conditions: in vivo
[36] = Half life in rat at 0.2 mg/kg, iv and 6 mg/kg, po; format: ADME, organism-based; conditions: in vivo
[37] = Half life in cynomolgus monkey at 0.1 mg/kg, iv and 1 mg/kg, po; format: ADME, organism-based, Macaca fascicularis; conditions: in vivo
[38] = Clearance in cynomolgus monkey at 0.1 mg/kg, iv and 1 mg/kg, po; format: ADME, organism-based, Macaca fascicularis; conditions: in vivo
[39] = Clearance in rat; format: ADME, organism-based; conditions: in vivo
Coagulation factor X = Coagulation factor X (Homo sapiens, UniProt P00742); assay: Inhibition of Factor 10a
Chain of Coagulation factor X (P00742 41-179 limits assumed): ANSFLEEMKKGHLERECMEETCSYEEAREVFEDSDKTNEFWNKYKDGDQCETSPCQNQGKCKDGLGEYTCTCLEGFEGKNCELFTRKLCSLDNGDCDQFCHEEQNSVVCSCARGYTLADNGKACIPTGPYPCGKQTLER
Chain of Coagulation factor X (P00742 235-488 limits assumed): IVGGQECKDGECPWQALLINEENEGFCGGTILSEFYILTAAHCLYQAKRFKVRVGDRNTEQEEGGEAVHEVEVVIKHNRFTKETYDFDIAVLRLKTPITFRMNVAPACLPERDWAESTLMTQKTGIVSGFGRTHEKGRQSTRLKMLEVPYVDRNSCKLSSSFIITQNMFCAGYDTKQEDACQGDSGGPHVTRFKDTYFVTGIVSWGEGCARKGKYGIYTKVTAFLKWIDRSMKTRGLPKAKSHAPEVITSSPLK

[40] = Half life in rat; format: ADME, organism-based; conditions: in vivo
[41] = Metabolic stability in human liver S9 fraction at 1 uM by HPLC; format: ADME, subcellular
[42] = Metabolic stability in rat liver S9 fraction at 1 uM by HPLC; format: ADME, subcellular
[43] = Oral bioavailability in rat; format: ADME, organism-based; conditions: in vivo

## COc1ccc(NC(=O)c2ccc(C(=N)N(C)C)cc2)c(C(=O)Nc2ccc(Cl)cn2)c1 [BETRIXABAN]
[1]
  clearance: 26.5 mL/min/kg
[2]
  IC50: > 10 µM
[3]
  AUC: 456 ng·h/mL
[4]
  bioavailability: 58.7%
[5]
  Vd: 48.8 L/kg
[6]
  Vd: 13.4 L/kg
[7]
  bioavailability: 23.8%
[8]
  IC50: 6.3 µM
[9]
  bioavailability: 51.6%
[10]
  clearance: 43.6 mL/min/kg
[11]
  half-life: 576 min
[12]
  IC50: > 10 µM
[13]
  half-life: 528 min
Prothrombin
  IC50: > 10 µM
[14]
  half-life: 1270 min
[15]
  AUC: 825 ng·h/mL
Plasminogen
  IC50: > 10 µM
[16]
  IC50: > 10 µM
[17]
  fraction unbound at 0.5 h, 10 µM: 0.8
[18]
  AUC: 4180 ng·h/mL
[19]
  clearance: 18.7 mL/min/kg
[20]
  Vd: 32.9 L/kg

## CN(C)C(=N)c1ccc(C(=O)Nc2ccccc2C(=O)Nc2ccc(Cl)cn2)cc1
[21]
  bioavailability: 31%

## CN(C)C(=N)c1ccc(C(=O)Nc2ccc(Cl)cc2C(=O)Nc2ccc(Cl)cn2)cc1
[22]
  Vd: 45.7 L/kg
[23]
  Ki: 110 nM
[2]
  IC50: > 10 µM
[24]
  bioavailability: 26.1%
[25]
  AUC: 885 ng·h/mL
[26]
  Vd: 36.5 L/kg
[27]
  half-life: 918 min
[8]
  IC50: 0.51 µM
[28]
  AUC: 512 ng·h/mL
[29]
  bioavailability: 64.9%
[12]
  IC50: > 10 µM
[30]
  AUC: 320 ng·h/mL
Prothrombin
  IC50: > 10 µM
[31]
  clearance: 34 mL/min/kg
Plasminogen
  IC50: > 10 µM
[32]
  bioavailability: 73%
[33]
  IC50: 330 nM
[16]
  IC50: > 10 µM
[34]
  Vd: 26.1 L/kg
[35]
  clearance: 29.7 mL/min/kg
[17]
  fraction unbound at 0.5 h, 10 µM: 0.881
[36]
  half-life: 768 min
[37]
  half-life: 1160 min
[38]
  clearance: 26.7 mL/min/kg

## CSc1ccc(NC(=O)c2ccc(C(=N)N(C)C)cc2)c(C(=O)Nc2ccc(Cl)cn2)c1
[39]
  clearance: 77.1 mL/min/kg
Coagulation factor X
  IC50: < 0.5 nM
[40]
  half-life: 990 min
[41]
  half-life at 1 µM: > 120 min
[42]
  half-life at 1 µM: > 120 min
[43]
  bioavailability: 26.7%
